Data from US8628961B2, “Small molecule antagonists of phosphatidylinositol-3,4,5-triphosphate (PIP3) and uses thereof” (Tufts University, priority 2010, dated 2014).

Key:
Rac1 = Rac1 activation pull-down (GST-Pak1-PBD), western blot; type: cell-based, human; details: SUM159, PDGF
Description: Rho/Rac family, especially Rac1, plays a critical role in actin polymerization, membrane ruffling/lamellipodia formation, and cell motility (Ridley A J et al. (1992) Cell 70:401-410) downstream of the GEFs, e.g., VAV family, and upstream of the WAVE family. The effect of PITs on Rac1 activation was therefore analyzed. SUM159 cells were seeded on 10 cm^2 plates and serum starved overnight, treated with different PIT compounds at a variety of concentrations for 2 hr, and then stimulated with 100 ng/ml PDGF for 15 min. Next, cells were rinsed once with PBS, and 1 ml lysis buffer (25 mM Tris-HCl, pH 7.5, 150 mM NaCl, 5 mM MgCl2, 1% NP-40, 1 mM DTT, 5% glycerol, 1 μg/ml aprotinin, 1 μg/ml leupeptin and 1 mM PMSF) was added per plate. The cells were scraped and transferred to a microcentrifuge tube, vortexed briefly, and incubated on ice for 5 min, followed by a centrifugation at 16,000×g at 4° C. for 15 min. The supernatant was collected. A sample of the lysate was used to ensure equal protein concentration in the samples. Next, 700 μl lysate, 20 μl glutathione-sepharose beads, and 20 μg GST-human Pak1-PBD were mixed together, and the reaction mixture was incubated at 4° C. for 1 hr with gentle rocking. The beads were then washed three times with lysis buffer, and proteins were eluted by boiling beads in 50 μl of the 2×SDS sample buffer at 95-100° C. for 5 min. […]

U87MG cells [1] = assay: Cell death in U87MG cells overexpressing PH domain-deficient constitutively active Akt; type: cell-based, human
Description: To further confirm the mode of action of PIT-1 in the cells is directly related to the inhibition of PIP3/Akt PH domain interaction, induction of cell death in cells overexpressing constitutively active Akt lacking PH domain, but containing a membrane-targeting myristoylation signal, was tested. […] This is not unexpected, considering that another PIT-1 target, PDK1, regulates cell survival through both Akt-dependent and Akt-independent pathways.

HUVEC = assay: Endothelial tube formation assay on Matrigel; type: cell-based, human; details: P>0.05
Description: The tube formation assay was performed in 96-well plates. Wells were pre-coated with 70 μl of the Matrigel basement membrane matrix (BD Biosciences) per well for 1 hr at 37° C. HUVEC were suspended in serum-free M199 medium and plated on Matrigel at a density of 2×10^4 cells per well. PIT-1 was added at indicated concentrations (3.125-100 μM). After an 8 hr incubation at 37° C., phase-contrast images of the endothelial tubes were obtained using a Nikon TE2000 microscope, and tube formation was assessed by counting the number of closed tubes in five random fields from each well.

PLC-δ PH domain = PLC-δ PH domain (Homo sapiens (Human), UniProt P51178); assay: PH domain translocation assay (GFP fusion); type: cell-based
Description: Cells were transfected with the corresponding GFP-fusion vectors, serum starved overnight, and incubated with 100 μM PITs or PIT-1 is for 2 hr, followed by stimulation with 100 ng/ml PDGF or 250 ng/ml PMA for 5 min. The translocation was analyzed using fluorescent microscope and was quantitated by counting the number of cells with translocated PH domains in five random fields.

U87MG cells [2] = assay: Sensitization of U87MG cells to TRAIL, ATP assay; type: cell-based, human; details: 10 ng/ml TRAIL, 48 hr
Description: FIG. 10 is a bar graph depicting that PITs, as well as Akt inhibitor VIII, sensitize U87MG cells to killing by TRAIL. U87MG cells were incubated with 50 μM PIT-1, PIT-2, PIT-1i-1 or 10 μM Akt inhibitor VIII in the presence or absence of 10 ng/ml TRAIL for 48 hr, followed by cell viability analysis using ATP assay.
Upregulation of PI3K/Akt signaling is an important mechanism of chemoresistance of cancer cells. Blume-Jensen P et al. (2001) Nature 411:355-65; Osaki M et al. (2004) Apoptosis 9:667-76. […] Puduvalli V K et al. (2005) Apoptosis 10:233-43 TRAIL represents a particularly promising anti-cancer agent due to its intrinsic selectivity towards cancer cells which is associated with the expression of the decoy receptors by many (but not all) normal cells. Abe K et al. (2000) Ann NY Acad Sci 926:52-63. […] Oka N et al. (2005) Cancer Res 65:7546-53.

SUM159 cells = assay: Actin polymerization and ruffling/lamellipodia formation after PDGF; type: cell-based, human; details: SUM159, concentration-dependent
Description: In one set of experiments, the ability of PITs to inhibit actin polymerization and ruffling/lamellipodia formation was examined in SUM159 cells. Cells were serum starved and treated with PITs (25, 50 100 μM) or PIT-1 is (100 μM) for 8 hr, followed by PDGF (100 ng/ml) stimulation for 15 min. Cells were fixed and stained with TRITC-phalloidin to visualize actin fibers, followed by fluorescent microscopy analysis. The number of cells with ruffles/lamellipodia was counted in five random fields.

PH123 = PH123 (Homo sapiens (Human), UniProt P31749); assay: Lipid overlay assay of PIP3/PH123 binding
eIF-1 = eIF-1 (Homo sapiens (Human), UniProt P41567); assay: NMR HSQC specificity control; type: binding
Chain of eIF-1 (P41567 whole entry, species assumed): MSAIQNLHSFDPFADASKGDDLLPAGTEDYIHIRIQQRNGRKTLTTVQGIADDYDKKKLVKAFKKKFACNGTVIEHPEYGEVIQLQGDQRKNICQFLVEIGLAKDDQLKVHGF

Chain of PH123 (P31749 1-123): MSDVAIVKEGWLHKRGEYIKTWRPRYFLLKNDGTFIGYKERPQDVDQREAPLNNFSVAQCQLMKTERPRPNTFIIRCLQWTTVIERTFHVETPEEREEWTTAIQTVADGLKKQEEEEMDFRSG
Chain of PLC-δ PH domain (P51178 21-130): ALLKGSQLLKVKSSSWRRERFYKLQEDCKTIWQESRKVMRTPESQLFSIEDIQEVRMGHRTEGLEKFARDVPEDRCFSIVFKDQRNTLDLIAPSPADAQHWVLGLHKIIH

## O=C(NC(=S)Nc1cc([N+](=O)[O-])cc(Cl)c1O)c1ccccc1 [PIT-1]
Rac1
  activation of Rac1 caused by growth factor stimulation: efficiently suppressed the activation of Rac1
U87MG cells [1]
  effect of overexpressed PH domain-deficient Akt on killing of U87MG cells: significantly protected U87MG cells from PIT-1 killing
HUVEC
  cell viability under tube formation conditions: No loss of cell viability
PLC-δ PH domain
  cellular localization of PLC-δ PH domain: no inhibitory effect
U87MG cells [2]
  sensitization of U87MG cells to killing by TRAIL: substantially sensitized U87MG cells to killing by TRAIL
SUM159 cells
  PDGF-induced membrane ruffling: efficiently inhibited
PH123
  inhibitory effect on PIP3/PH123 binding: concentration-dependent inhibitory effect
eIF-1
  changes in HSQC spectra of eIF-1: did not elicit any changes
